One may read the IC50 as the concentration that gives 50% inhibition. In general, clearance refers to the volume of plasma or blood freed of the substance per unit of time. As usually defined, the inhibition is the relative decrease from the control value, in per cent.

Data on 14 compounds can be found in ChEMBL document CHEMBL3232853, “Alkylsulfone-containing trisubstituted cyclohexanes as potent and bioavailable chemokine receptor 2 (CCR2) antagonists” (Bioorg Med Chem Lett, 2014).

The target in data set [1] is C-C chemokine receptor type 2 (Homo sapiens, UniProt P41597). Description: Displacement of [125I]-labeled human MCP1 from CCR2 in human PBMC. A general note: Displacement assays read how much labelled ligand stays bound in the presence of the test substance.
Chain of C-C chemokine receptor type 2 (P41597 whole entry): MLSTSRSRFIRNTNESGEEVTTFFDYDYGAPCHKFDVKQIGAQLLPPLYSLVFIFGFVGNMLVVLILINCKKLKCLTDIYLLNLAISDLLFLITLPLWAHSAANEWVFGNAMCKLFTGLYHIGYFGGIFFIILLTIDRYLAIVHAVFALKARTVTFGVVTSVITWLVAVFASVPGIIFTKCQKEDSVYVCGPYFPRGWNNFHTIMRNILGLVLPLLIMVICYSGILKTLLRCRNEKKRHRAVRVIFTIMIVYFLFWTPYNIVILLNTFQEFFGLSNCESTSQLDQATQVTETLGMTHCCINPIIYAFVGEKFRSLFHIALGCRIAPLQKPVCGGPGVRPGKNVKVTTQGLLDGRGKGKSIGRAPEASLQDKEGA
Data set [2] in a line: Clearance in dog at 1 mg/kg, iv. Set-up: dose 1 mg/kg, route intravenous. The format is ADME, organism-based, Canis lupus familiaris. To be noted: in vivo.
Data set [3] has as its system Mus musculus. Description: Oral bioavailability in mouse at 54 mg/kg. The format is ADME, organism-based. To be noted: in vivo.
The species entered for the next data set is Homo sapiens. Description: Inhibition of sodium channel (unknown origin) at 10 uM at 4 Hz by patch clamp assay relative to control. A general note: Patch clamp records ionic current or voltage across a cell membrane.
Data set [4] is filed under the species Rattus norvegicus. Description: Inhibition of rat sodium channel site 2 at 10 uM relative to control.
A short description of data set [5]: Clearance in cynomolgus monkey at 1 mg/kg, iv. Type of data set: ADME, organism-based, Macaca fascicularis. Also noted: dose 1 mg/kg, route intravenous. The following applies: in vivo.
Data set [6] in a line: Clearance in rat at 6 mg/kg, iv. The format is ADME, organism-based. Also noted: dose 6 mg/kg, route intravenous. To be noted: in vivo.
Data set [7] relates to Mus musculus. As to the kind of experiment: Antiinflammatory activity in thioglycollate-induced human CCR2 knock-in mouse peritonitis model assessed as reduction of Ly6C+F4/80+ cell numbers in peripheral blood at 50 mg/kg, po administered 1 hr prior to thioglycollate challenge measured after 6 hrs. The format is functional, organism-based. Also noted: dose 50 mg/kg.
Data set [8] in a line: Permeability across apical to basolateral side in human Caco2 cells. The format is ADME, cell-based. To be noted: Caco-2, read-out: permeability. (In general: Caco-2 monolayers are a common model of the intestinal barrier.)
Data set [9] deals with Mus musculus. Description: Antiinflammatory activity in thioglycollate-induced human CCR2 knock-in mouse peritonitis model assessed as reduction of Ly6C+F4/80+ cell numbers in peritoneal cavity at 50 mg/kg, po administered 1 hr prior to thioglycollate challenge measured after 6 hrs. Type of data set: functional, organism-based. Also noted: dose 50 mg/kg.
The subject of data set [10] is Rattus norvegicus. Description: Oral bioavailability in rat at 72 mg/kg. Type of data set: ADME, organism-based. To be noted: in vivo.
In another data set the test system is Liver microsome. The following applies: human, microsomes, 10 min.
Data set [11] relates to Cynomolgus monkey. As to the kind of experiment: Oral bioavailability in cynomolgus monkey at 14 mg/kg. The following applies: in vivo. Type of data set: ADME, organism-based, Macaca fascicularis.
Data set [12] is described as follows: Clearance in mouse at 3 mg/kg, iv. The format is ADME, organism-based. Also noted: dose 3 mg/kg, route intravenous. The following applies: in vivo.
Data set [13] concerns Canis familiaris. Description: Oral bioavailability in dog at 14 mg/kg. The format is ADME, organism-based, Canis lupus familiaris. The following applies: in vivo.
In data set [14] the test system is Canis familiaris. As to the kind of experiment: Oral bioavailability in dog at 10 mg/kg. The format is ADME, organism-based, Canis lupus familiaris. To be noted: in vivo.
The nature of data set [15]: Clearance in rat at 4 mg/kg, iv. The format is ADME, organism-based. To be noted: in vivo. Also noted: dose 4 mg/kg, route intravenous.
In data set [16] the test system is Mus musculus. Description: Antiinflammatory activity in thioglycollate-induced human CCR2 knock-in mouse peritonitis model assessed as reduction of Ly6C+F4/80+ cell number peritoneal cavity at 100 mg/kg, po administered 1 hr prior to thioglycollate challenge measured after 6 hrs. The format is functional, organism-based. Also noted: dose 100 mg/kg.
Data set [17] is described as follows: Clearance in mouse at 5 mg/kg, iv. The format is ADME, organism-based. Also noted: dose 5 mg/kg, route intravenous. The following applies: in vivo.
Data set [18] relates to Cynomolgus monkey. As to the kind of experiment: Oral bioavailability in cynomolgus monkey at 10 mg/kg. The format is ADME, organism-based, Macaca fascicularis. The following applies: in vivo.
For data set [19], the system named is Rattus norvegicus. As to the kind of experiment: Oral bioavailability in rat at 43 mg/kg. Type of data set: ADME, organism-based. The following applies: in vivo.
Data set [20] has as its system Mus musculus. As to the kind of experiment: Antiinflammatory activity in thioglycollate-induced human CCR2 knock-in mouse peritonitis model assessed as reduction of Ly6C+F4/80+ cell numbers in peripheral blood at 100 mg/kg, po administered 1 hr prior to thioglycollate challenge measured after 6 hrs. Type of data set: functional, organism-based. Also noted: dose 100 mg/kg.

Data set [21] relates to Mus musculus. As to the kind of experiment: Oral bioavailability in mouse at 100 mg/kg. The format is ADME, organism-based. The following applies: in vivo.
The species entered for data set [22] is Mus musculus. As to the kind of experiment: Antiinflammatory activity in thioglycollate-induced wild type mouse peritonitis model. The format is functional, organism-based.
For data set [23], the target named is Voltage-gated inwardly rectifying potassium channel KCNH2 (Homo sapiens, UniProt Q12809). As to the kind of experiment: Inhibition of human ERG by FLIPR assay.
Chain of Voltage-gated inwardly rectifying potassium channel KCNH2 (Q12809 whole entry): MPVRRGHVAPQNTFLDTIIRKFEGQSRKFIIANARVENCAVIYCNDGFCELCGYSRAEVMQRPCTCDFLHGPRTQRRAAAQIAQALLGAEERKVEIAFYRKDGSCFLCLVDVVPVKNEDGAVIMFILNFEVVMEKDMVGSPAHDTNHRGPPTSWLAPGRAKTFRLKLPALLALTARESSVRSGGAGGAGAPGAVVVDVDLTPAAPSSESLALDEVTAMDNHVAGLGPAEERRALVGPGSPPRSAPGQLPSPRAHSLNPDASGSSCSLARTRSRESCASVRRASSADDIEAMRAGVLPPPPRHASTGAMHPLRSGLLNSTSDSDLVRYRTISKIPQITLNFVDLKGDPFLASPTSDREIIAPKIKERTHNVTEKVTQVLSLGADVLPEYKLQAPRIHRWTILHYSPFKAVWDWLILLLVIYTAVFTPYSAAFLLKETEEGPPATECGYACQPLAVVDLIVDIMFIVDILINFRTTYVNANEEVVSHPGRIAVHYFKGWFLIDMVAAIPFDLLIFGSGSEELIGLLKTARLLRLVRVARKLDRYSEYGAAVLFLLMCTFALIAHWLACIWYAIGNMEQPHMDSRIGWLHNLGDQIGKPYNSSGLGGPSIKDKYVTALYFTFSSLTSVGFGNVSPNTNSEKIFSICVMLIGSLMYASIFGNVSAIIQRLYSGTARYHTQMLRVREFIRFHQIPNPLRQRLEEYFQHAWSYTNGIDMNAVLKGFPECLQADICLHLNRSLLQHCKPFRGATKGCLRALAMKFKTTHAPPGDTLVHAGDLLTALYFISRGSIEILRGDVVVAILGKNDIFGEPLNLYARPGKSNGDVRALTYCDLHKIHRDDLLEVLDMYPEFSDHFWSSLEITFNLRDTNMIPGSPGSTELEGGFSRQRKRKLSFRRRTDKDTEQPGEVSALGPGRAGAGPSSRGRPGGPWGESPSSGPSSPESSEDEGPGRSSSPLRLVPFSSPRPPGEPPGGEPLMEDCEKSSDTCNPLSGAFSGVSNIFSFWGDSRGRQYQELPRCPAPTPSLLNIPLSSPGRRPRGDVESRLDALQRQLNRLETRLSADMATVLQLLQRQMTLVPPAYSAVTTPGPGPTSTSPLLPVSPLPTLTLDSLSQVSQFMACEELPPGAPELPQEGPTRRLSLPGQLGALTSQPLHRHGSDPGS
Data set [24] in a line: Antagonist activity at CCR2 in human monocytes assessed as reduction of chemotaxis in presence of […].

SMILES strings stand for the structures. Calls of active or inactive are those of the source. No cut-off for these calls is given here.

Description for Liver microsome: Metabolic stability in human liver microsomes assessed as compound remaining after 10 mins

`CC(C)N(C)[C@@H]1CC[C@H](N2CC[C@H](NC(=O)c3cccc(C(C)(C)C)c3)C2=O)[C@H](CS(C)(=O)=O)C1`: in data set [1], the half-maximal inhibitory concentration (IC50) was 1.2 nM.

Consider `CC(C)N(C)[C@@H]1CC[C@H](N2CC[C@H](NC(=O)c3cccc(C(F)(F)F)c3)C2=O)[C@H](CS(C)(=O)=O)C1`, for which the clearance in [2] is 0.18 L/h/kg; in data set [5], 0.84 L/h/kg; in [6] it was 2.52 L/h/kg; in data set [12], 4.2 L/h/kg. In addition, the F in the data set on Mus musculus [3] was 16%; in the data set on Rattus norvegicus [10], 1%; with Cynomolgus monkey [11] it was 9%; with Canis familiaris [13], 51%. The inhibition amounted to 22% in the data set listed under Homo sapiens and 3% in the data set filed under Rattus norvegicus [4]. In [1], the IC50 turned out to be 1.8 nM. Besides, the outcome in the data set with Mus musculus [7] and in the data set on Mus musculus [9] was Active. The Papp A→B in data set [8] is less than 15 nm/s. In the data set on Liver microsome, this compound displayed a Stability of 100%.

Consider `CC(C)N(C)[C@@H]1CC[C@H](N2CC[C@H](NC(=O)c3cccc(C(F)(F)F)c3)C2=O)[C@H](CS(=O)(=O)C(C)(C)C)C1`, for which the clearance in [2] came to 0.3 L/h/kg; in data set [15] it was 3.24 L/h/kg; in data set [5], 0.72 L/h/kg; in data set [17], 1.5 L/h/kg. In addition, the F in the data set on Canis familiaris [14] is 74%; with Cynomolgus monkey [18], 26%; in the data set on Rattus norvegicus [19], 14%; with Mus musculus [21], 13%. For the same compound, the inhibition was found to be 19% in the data set filed under Homo sapiens and 48% in the data set filed under Rattus norvegicus [4]. Further, in [1], the IC50 came out at 0.96 nM. The outcome in the data set with Mus musculus [16] and in the data set with Mus musculus [20] was Active. The Papp A→B in data set [8] turned out to be 30 nm/s. In addition, the Stability in the data set with Liver microsome is listed as 100%. Further, in the data set listed under Mus musculus [22], the result was inactive.

With `CCS(=O)(=O)C[C@@H]1C[C@H](N(C)C(C)C)CC[C@@H]1N1CC[C@H](NC(=O)c2cccc(-c3ccccc3)c2)C1=O`, the concentration for half-maximal inhibition (IC50) in [1] came to 1.1 nM; in data set [23], 60000 nM.

For `CC(C)N(C)[C@@H]1CC[C@H](N2CC[C@H](NC(=O)c3cc(F)cc(C(F)(F)F)c3)C2=O)[C@H](CS(=O)(=O)C(C)(C)C)C1`, in the data set filed under Rattus norvegicus [4], the inhibition was 48%. The IC50 in data set [1] is 1.3 nM; in data set [23], more than 80000 nM.

The compound `CC(C)N(C)[C@@H]1CC[C@H](N2CC[C@H](NC(=O)c3cccc(OC(F)(F)F)c3)C2=O)[C@H](CS(C)(=O)=O)C1` registered an inhibition in the data set listed under Rattus norvegicus [4] of 32%. In addition, the IC50 in data set [1] stood at 5 nM.

In the case of `CCS(=O)(=O)C[C@@H]1C[C@H](N(C)C(C)C)CC[C@@H]1N1CC[C@H](NC(=O)c2cccc(C(F)(F)F)c2)C1=O`, the inhibition amounted to 4.2% in the data set filed under Homo sapiens and 26% in the data set listed under Rattus norvegicus [4]. The same compound registered a half-inhibitory concentration (IC50) in [1] of 1.2 nM. Also, the Papp A→B in data set [8] was less than 15 nm/s. Besides, the Stability in the data set on Liver microsome was found to be 100%.

In turn, `CC(C)N(C)[C@@H]1CC[C@H](N2CC[C@H](NC(=O)c3cccc(C(F)(F)F)n3)C2=O)[C@H](CS(C)(=O)=O)C1` had an inhibition in the data set listed under Rattus norvegicus [4] of 0%. For the same compound, the IC50 in data set [1] was 2.2 nM; in data set [23], more than 80000 nM.

Regarding `CC(C)N(C)[C@@H]1CC[C@H](N2CC[C@H](NC(=O)c3cccc(C(F)(F)F)c3)C2=O)[C@H](CS(=O)(=O)c2ccccc2)C1`, the Papp A→B in data set [8] was less than 15 nm/s. The IC50 in [24] came to 0.5 nM. The Stability with Liver microsome came to 88%.

In turn, `CC(C)N(C)[C@@H]1CC[C@H](N2CC[C@H](NC(=O)c3cccc(C(C)(C)C)c3)C2=O)[C@H](CS(=O)(=O)C(C)C)C1` displayed an IC50 in data set [1] of 0.5 nM.

Take `CC(C)N(C)[C@@H]1CC[C@H](N2CC[C@H](NC(=O)c3cccc(C(C)(C)C)n3)C2=O)[C@H](CS(C)(=O)=O)C1`: the inhibition in the data set filed under Rattus norvegicus [4] stood at 46%. The 50% inhibitory concentration (IC50) in [1] was determined as 0.7 nM.

`CC(C)N(C)[C@@H]1CC[C@H](N2CC[C@H](NC(=O)c3cccc(OC(F)(F)F)c3)C2=O)[C@H](CS(=O)(=O)C(C)(C)C)C1` registered an inhibition in the data set filed under Rattus norvegicus [4] of 61%. In addition, the 50% inhibitory concentration (IC50) in [1] was 1.2 nM; in [23] it was more than 80000 nM.

In the case of `CC(C)N(C)[C@@H]1CC[C@H](N2CC[C@H](NC(=O)c3cccc(C(F)(F)F)c3)C2=O)[C@H](CS(=O)(=O)C(C)C)C1`, in data set [1], the IC50 amounted to 0.34 nM. In addition, the Papp A→B in data set [8] was less than 15 nm/s. In addition, the Stability in the data set with Liver microsome was 100%.

Compound `Cc1ccc(C(=O)N[C@H]2CCN([C@H]3CC[C@@H](N(C)C(C)C)C[C@H]3CS(C)(=O)=O)C2=O)cc1C(F)(F)F` registered an inhibition in the data set filed under Rattus norvegicus [4] of 36%. The compound also yielded a half-inhibitory concentration (IC50) in data set [1] of 5.2 nM.
